Measurements: article PMC6017357, “In Vitro Inhibitory Effects of Synthetic Cannabinoid EAM-2201 on Cytochrome P450 and UDP-Glucuronosyltransferase Enzyme Activities in Human Liver Microsomes” (Molecules : A Journal of Synthetic Chemistry and Natural …, 2018)

Tests used:
UGT1A4 = target: T1, UGT1A4 (Homo sapiens, UniProt P22310); assay: UGT1A4-catalyzed trifluoperazine N-glucuronidation in human liver microsomes; assay type: in vitro ADME; conditions: at 50 µM
T1 construct: ultrapooled human liver microsomes (0.2 mg/mL), 5 mM UDPGA; from tissue; host or cells: ultrapooled human liver microsomes
T1 sequence (P22310 29-534): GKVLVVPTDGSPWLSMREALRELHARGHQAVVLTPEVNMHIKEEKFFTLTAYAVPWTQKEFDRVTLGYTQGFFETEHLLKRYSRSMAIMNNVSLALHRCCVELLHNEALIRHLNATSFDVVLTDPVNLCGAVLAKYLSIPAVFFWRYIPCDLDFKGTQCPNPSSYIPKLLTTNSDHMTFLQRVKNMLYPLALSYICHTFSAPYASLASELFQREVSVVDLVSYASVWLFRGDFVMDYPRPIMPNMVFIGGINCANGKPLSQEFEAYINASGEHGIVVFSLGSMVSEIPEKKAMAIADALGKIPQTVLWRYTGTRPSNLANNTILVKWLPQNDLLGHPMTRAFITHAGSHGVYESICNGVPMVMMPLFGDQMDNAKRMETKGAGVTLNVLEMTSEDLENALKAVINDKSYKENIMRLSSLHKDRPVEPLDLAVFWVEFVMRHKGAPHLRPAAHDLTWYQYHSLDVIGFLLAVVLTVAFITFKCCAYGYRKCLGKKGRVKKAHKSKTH
Method: (§1) The inhibitory effects of EAM-2201 on UGT1A1, UGT1A3, UGT1A4, UGT1A6, UGT1A9 and UGT2B7 were evaluated using LC-MS/MS and the cocktail of UGT substrates as previously described. Each incubation mixture was prepared in a final volume of 100 µL as follows: ultrapooled human liver microsomes (0.2 mg/mL), 5 mM UDPGA, 10 mM magnesium chloride, alamethicin (25 µg/mL), 50 mM Tris buffer (pH 7.4), various concentrations of EAM-2201 in DMSO (final concentrations of 1–50 µM, 0.5% DMSO) and the UGT enzyme-specific substrates of two cocktail sets (set A: 0.5 µM SN-38, 2 µM chenodeoxycholic acid and 0.5 µM trifluoperazine; set B: 1 µM N-acetylserotonin, 0.2 µM mycophenolic acid and 1 µM naloxone, acetonitrile content, 0.5%). […] Supernatant from sets A and B (50 µL of each) was mixed and aliquots (5 µL) were analyzed by LC-MS/MS. […]
(§2) The metabolites formed from the six UGT cocktail substrates were simultaneously measured using LC-MS/MS [41]. […] Each metabolite was quantified via SRM in the negative ion mode: chenodeoxycholic acid 24-acyl-β-glucuronide, 567.2 > 391.0; mycophenolic acid glucuronide, 495.2 > 318.9; and propofol glucuronide (IS), 353.3 > 177.1; and in the positive ion mode: SN-38 glucuronide, 569.0 > 393.0; trifluoperazine glucuronide, 584.2 > 408.1; N-acetylserotonin-β-D-glucuronide, 395.2 > 219.0; naloxone 3-β-D-glucuronide, 504.0 > 310.0; and meloxicam (IS), 352.0 > 115.1. […]

UGT1A6 = target: T2, UGT1A6 (Homo sapiens, UniProt P19224); assay: UGT1A6-catalyzed N-acetylserotonin glucuronidation in human liver microsomes; assay type: in vitro ADME; conditions: at 50 µM
T2 construct: ultrapooled human liver microsomes (0.2 mg/mL), 5 mM UDPGA; from tissue; host or cells: ultrapooled human liver microsomes
T2 sequence (P19224 27-532): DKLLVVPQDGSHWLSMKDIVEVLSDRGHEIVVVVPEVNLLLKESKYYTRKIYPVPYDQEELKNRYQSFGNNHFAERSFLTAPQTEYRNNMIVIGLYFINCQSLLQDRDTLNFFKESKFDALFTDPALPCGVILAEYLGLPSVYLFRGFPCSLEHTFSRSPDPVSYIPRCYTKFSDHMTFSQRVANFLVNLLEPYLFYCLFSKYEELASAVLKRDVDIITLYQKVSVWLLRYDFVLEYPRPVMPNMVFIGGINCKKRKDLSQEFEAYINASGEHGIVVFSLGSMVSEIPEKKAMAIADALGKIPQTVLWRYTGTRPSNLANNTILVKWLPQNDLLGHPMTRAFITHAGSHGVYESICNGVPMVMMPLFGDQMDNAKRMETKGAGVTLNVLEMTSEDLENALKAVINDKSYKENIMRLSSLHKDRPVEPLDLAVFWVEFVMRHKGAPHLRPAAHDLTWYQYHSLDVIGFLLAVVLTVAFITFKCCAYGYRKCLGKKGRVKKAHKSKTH
Method: as §1, §2

## CCc1ccc(C(=O)c2cn(CCCCCF)c3ccccc23)c2ccccc12 [EAM-2201, (4-ethyl-1-naphthalenyl)[1-(5-fluoropentyl)-1H-indol-3-yl]-methanone]
UGT1A4
  inhibition of UGT1A4-catalyzed trifluoperazine N-glucuronidation: negligibly inhibited
UGT1A6
  inhibition of UGT1A6-catalyzed N-acetylserotonin glucuronidation: negligibly inhibited
